These results are taken from patent US20230081426A1, “COMPOUNDS AND METHODS FOR KRAS MODULATION AND INDICATIONS THEREFOR” (Plexxikon Inc., priority 2020, published 2023).

Molecules are shown by their SMILES. Read-outs that look alike come from different tables or passages of the source.

For assay [1], the target named is T1, G12V-mutant human KRAS (amino acid residues 1-188) (Homo sapiens, UniProt P01116, G12V).
T1 construct: G12V-mutant human KRAS (amino acid residues 1-188) with FLAG tag was purified from E. coli; made in house; host or cells: E. coli
The assay can be described thus: KRAS Binding Competition Assay (AlphaScreen; biotinylated KRpep-2d analogue), G12V. Particulars: geometric mean, read-out: KRAS GMean IC50 (uM) MUTATION: G12V.

Assay [2] addresses T2, G12D-mutant human KRAS (amino acid residues 1-188) (Homo sapiens, UniProt P01116, G12D).
T2 construct: G12D or G12C-mutant human KRAS (amino acid residues 1-188) with FLAG tag; made in house; host or cells: E. coli
The assay can be described thus: KRAS Binding Disruption Assay (AlphaScreen; biotinylated KRpep-2d analogue or RAF1-RBD), G12D. The conditions noted are these: for IC50: geometric mean, read-out: KRAS GMean IC50 (uM) MUTATION: G12D. The method, boiled down:
(§1)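 Mutant KRAS (5-20 nM) incubated 1 h at 25° C with test compound and 5-20 nM biotinylated KRpep-2d analogue or RAF1-RBD in 20 mM HEPES pH 7.5, 100 mM NaCl, 5 mM MgCl2, 0.01% Tween-20, 0.01% BSA.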
For orientation: In Alpha technology, singlet oxygen from a donor bead excites a nearby acceptor bead.

In assay [3] the target is T3, G12C-mutant human KRAS (amino acid residues 1-188) (Homo sapiens, UniProt P01116, G12C).
T3 construct: G12D or G12C-mutant human KRAS (amino acid residues 1-188) with FLAG tag; made in house; host or cells: E. coli
Nature of the assay: KRAS Binding Disruption Assay (AlphaScreen; biotinylated KRpep-2d analogue or RAF1-RBD), G12C. Particulars: geometric mean, read-out: KRAS GMean IC50 (uM) MUTATION: G12C. Put shortly:
as §1

One may read the IC50 as the concentration that inhibits the measured activity by half.

In the case of `CN1CCC[C@H]1COc1nc(N2C[C@H]3CC[C@@H](C2)N3)c2cc(C(=O)O)c(-c3cc(O)cc4ccccc34)c(F)c2n1` [P-0024, 4-(3,8-Diazabicyclo[3.2.1]octan-3-yl)-8-fluoro-7-(3-hydroxy-1-naphthyl)-2-[[(2S)-1-methylpyrrolidin-2-yl]methoxy]quinazoline-6-carboxylic acid], the IC50 lay in the range of 0.0001 to 10 µM in assay [1], 0.0001 to 10 µM in assay [2] (KRAS G12D) and 10 to 100 µM in assay [3].
As for `CN1CCC[C@H]1COc1nc(N2C[C@H]3CC[C@@H](C2)N3)c2cc(Cl)c(-c3c(O)cccc3F)c(F)c2n1` [P-0027, 2-(4-((1R,5S)-3,8-diazabicyclo[3.2.1]octan-3-yl)-6-chloro-8-fluoro-2-(((S)-1-methylpyrrolidin-2-yl)methoxy)quinazolin-7-yl)-3-fluorophenol], the IC50 was 10 to 100 µM in assay [1]; 0.0001 to 10 µM in assay [2] (KRAS G12D); 0.038 µM in assay [2] (Table 3, bridged vs non-bridged R1); 10 to 100 µM in assay [3]. In addition, the “Improved KRAS G12D Biochemical Potency of Compounds with Bridged vs Non-Bridged R^1 Groups” value in assay [2] (Table 3, fold more potent than non-bridged version at the R1 variable) was “P-0027 is about 392 times more potent than its non- bridged version at the R^1 variable”.
`CN1CCC[C@H]1COc1nc(N2CC3CCC2CN3)c2cc(Cl)c(-c3cc(O)cc4ccccc34)c(F)c2n1` (stereo partly drawn) [P-0030, 4-(4-(2,5-diazabicyclo[2.2.2]octan-2-yl)-6-chloro-8-fluoro-2-(((S)-1-methylpyrrolidin-2-yl)methoxy)quinazolin-7-yl)naphthalen-2-ol]: the IC50 in assay [1] fell in the range of 10 to 100 µM; in assay [2] (KRAS G12D), 0.0001 to 10 µM; in assay [3], 10 to 100 µM.
For the compound `CN1CCC(Oc2nc(N3C[C@H]4CC[C@@H](C3)N4)c3cc(Cl)c(-c4cc(O)cc5ccccc45)c(F)c3n2)CC1` [P-0032, 4-(4-((1R,5S)-3,8-diazabicyclo[3.2.1]octan-3-yl)-6-chloro-8-fluoro-2-((1-methylpiperidin-4-yl)oxy)quinazolin-7-yl)naphthalen-2-ol], the values for the half-inhibitory concentration (IC50) in assay [1], in assay [2] (KRAS G12D) and in assay [3] were 10 to 100 µM, 0.0001 to 10 µM and 10 to 100 µM, respectively.
With `Oc1cc(-c2c(Cl)cc3c(N4C[C@H]5CC[C@@H](C4)N5)nc(OCC45CCCN4CCC5)nc3c2F)c2ccccc2c1` [P-0034, 4-(4-((1R,5S)-3,8-diazabicyclo[3.2.1]octan-3-yl)-6-chloro-8-fluoro-2-((tetrahydro-1H-pyrrolizin-7a(5H)-yl)methoxy)quinazolin-7-yl)naphthalen-2-ol], the IC50 in assay [1], in assay [2] (KRAS G12D) and in assay [3] was 0.0001 to 10 µM throughout.
Regarding `CN1CCC[C@H]1COc1nc(N2C[C@H]3CC[C@@H](C2)N3)c2ccc(-c3cc(O)cc4ccccc34)cc2n1` [P-0037, 4-(4-((1R,5S)-3,8-diazabicyclo[3.2.1]octan-3-yl)-2-(((S)-1-methylpyrrolidin-2-yl)methoxy)quinazolin-7-yl)naphthalen-2-ol], the IC50 in assay [1], in assay [2] (KRAS G12D) and in assay [3] was 0.0001 to 10 µM each time.
Turning to `CN1CCC[C@H]1COc1nc(N2CC3CC2CN3)c2cc(Cl)c(-c3cc(O)cc4ccccc34)c(F)c2n1` (stereo partly drawn) [P-0038, 4-(4-(2,5-diazabicyclo[2.2.1]heptan-2-yl)-6-chloro-8-fluoro-2-(((S)-1-methylpyrrolidin-2-yl)methoxy)quinazolin-7-yl)naphthalen-2-ol], the IC50 lay in the range of 10 to 100 µM in assay [1], 0.0001 to 10 µM in assay [2] (KRAS G12D) and 10 to 100 µM in assay [3].
On to `CN1CCC[C@H]1COc1nc(N2C[C@H]3CC[C@@H](C2)N3)c2ccc(-c3cc(O)cc4ccccc34)c(F)c2n1` [P-0044, 4-(4-((1R,5S)-3,8-diazabicyclo[3.2.1]octan-3-yl)-8-fluoro-2-(((S)-1-methylpyrrolidin-2-yl)methoxy)quinazolin-7-yl)naphthalen-2-ol], for which the half-maximal inhibitory concentration (IC50) in assay [1], in assay [2] (KRAS G12D) and in assay [3] was 0.0001 to 10 µM throughout.
